# Experimental data: patent publication US7713994B2 (Wyeth LLC, priority 2005, dated 2010)
# Read-outs that look alike come from different tables or passages of the source.
# Tests used:
# cyclin D1/cdk 4 enzyme = molecular target: T1, cyclin D1/cdk 4 enzyme (Homo sapiens, UniProt P11802); test: CDK4 ELISA kinase assay (phospho-Rb ser 795 detection); assay type: biochemical
# T1 construct: made in house; host or cells: Sf9 insect cells, recombinant baculovirus
# Procedure, shortened: (§1)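 ELISA format: plate-bound GST-Rb, 200 μM ATP, Sf9 cyclin/CDK enzyme, 1 h at 30° C; then anti-pRb Ser795 primary overnight at 4° C, HRP secondary, TMB. IC50 after no-substrate background subtraction.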
# MCF-7 = test: Cytotoxicity assay (SRB), MCF-7; assay type: cell-based; settings: Homo sapiens, MCF7, 72 h, read-out: In Vitro Cellular Activity IC50 MCF-7
# Procedure, shortened: (§2)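 Protein staining with sulforhodamine B after cold TCA fixation served as the survival endpoint (A540, relative to untreated cells). Before staining, cells were incubated with compound at 37 °C, 7% CO2 for 3 days, or 6 days for BT474.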
# HCT-116 = test: Cytotoxicity assay (SRB), HCT-116; assay type: cell-based; settings: Homo sapiens, HCT-116, 72 h, read-out: In Vitro Cellular Activity IC50 HCT116
# Procedure, shortened: as §2
# cyclin E/CDK2 enzyme = molecular target: T2, cyclin E/CDK2 enzyme (Homo sapiens, UniProt P24941); test: CDK2 ELISA kinase assay (phospho-Rb ser 795 detection); assay type: biochemical
# T2 construct: made in house; host or cells: Sf9 insect cells, recombinant baculovirus
# Procedure, shortened: as §1
# BT474 = test: Cytotoxicity assay (SRB), BT474; assay type: cell-based; settings: Homo sapiens, BT-474, 144 h, read-out: In Vitro Cellular Activity IC50 BT474
# Procedure, shortened: as §2
# cyclin B/CDK1 enzyme = molecular target: T3, cyclin B/CDK1 enzyme (Homo sapiens, UniProt P06493); test: CDK1 ELISA kinase assay (phospho-Rb ser 795 detection); assay type: biochemical
# T3 construct: purchased New England BioLabs; host or cells: Sf9 insect cells, recombinant baculovirus
# Procedure, shortened: as §1
# LoVo = test: Cytotoxicity assay (SRB), LoVo; assay type: cell-based; settings: Homo sapiens, LoVo, 72 h, read-out: In Vitro Cellular Activity IC50 LOVO
# Procedure, shortened: as §2
# [1] = In Vitro Enzyme Assays, 200 μM ATP, read-out: CDK4 IC50
# [2] = In Vitro Enzyme Assays, read-out: CDK2 IC50
# [3] = In Vitro Enzyme Assays, read-out: CDK1 IC50
# [4] = In Vitro Enzyme Assay, cyclin D1/cdk 4, read-out: CDK4 IC50
# [5] = In Vitro Enzyme Assay, cyclin E/CDK2, read-out: CDK2 IC50
# [6] = In Vitro Enzyme Assay, cyclin B/CDK1, read-out: CDK1 IC50
# T1 sequence (P11802 whole entry, species assumed): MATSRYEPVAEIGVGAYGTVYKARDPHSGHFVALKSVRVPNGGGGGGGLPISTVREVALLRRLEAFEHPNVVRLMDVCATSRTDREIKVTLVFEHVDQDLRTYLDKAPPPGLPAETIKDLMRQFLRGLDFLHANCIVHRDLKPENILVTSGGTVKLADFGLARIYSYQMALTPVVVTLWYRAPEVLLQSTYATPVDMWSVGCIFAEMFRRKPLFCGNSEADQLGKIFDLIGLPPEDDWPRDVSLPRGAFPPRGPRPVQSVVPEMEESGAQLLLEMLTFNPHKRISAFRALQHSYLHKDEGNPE
# T1 sequence (P24385 whole entry partner, species assumed): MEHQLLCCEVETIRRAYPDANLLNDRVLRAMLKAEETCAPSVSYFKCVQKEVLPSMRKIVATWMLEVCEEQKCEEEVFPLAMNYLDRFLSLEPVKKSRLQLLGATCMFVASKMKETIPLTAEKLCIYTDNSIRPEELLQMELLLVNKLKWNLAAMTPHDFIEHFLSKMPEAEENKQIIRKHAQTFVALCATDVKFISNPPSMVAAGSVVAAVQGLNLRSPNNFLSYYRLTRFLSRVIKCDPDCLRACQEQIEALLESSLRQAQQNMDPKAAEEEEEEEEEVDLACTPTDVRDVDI
# T3 sequence (P06493 whole entry): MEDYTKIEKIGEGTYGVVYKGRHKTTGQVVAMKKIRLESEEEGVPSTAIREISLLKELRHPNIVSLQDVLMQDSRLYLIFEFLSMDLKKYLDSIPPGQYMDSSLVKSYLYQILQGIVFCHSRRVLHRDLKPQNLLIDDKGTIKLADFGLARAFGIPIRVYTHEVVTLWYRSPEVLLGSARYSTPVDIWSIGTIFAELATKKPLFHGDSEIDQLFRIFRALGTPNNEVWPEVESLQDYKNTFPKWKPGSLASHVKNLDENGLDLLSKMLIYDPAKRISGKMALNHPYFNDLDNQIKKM
# T3 sequence (P14635 whole entry partner): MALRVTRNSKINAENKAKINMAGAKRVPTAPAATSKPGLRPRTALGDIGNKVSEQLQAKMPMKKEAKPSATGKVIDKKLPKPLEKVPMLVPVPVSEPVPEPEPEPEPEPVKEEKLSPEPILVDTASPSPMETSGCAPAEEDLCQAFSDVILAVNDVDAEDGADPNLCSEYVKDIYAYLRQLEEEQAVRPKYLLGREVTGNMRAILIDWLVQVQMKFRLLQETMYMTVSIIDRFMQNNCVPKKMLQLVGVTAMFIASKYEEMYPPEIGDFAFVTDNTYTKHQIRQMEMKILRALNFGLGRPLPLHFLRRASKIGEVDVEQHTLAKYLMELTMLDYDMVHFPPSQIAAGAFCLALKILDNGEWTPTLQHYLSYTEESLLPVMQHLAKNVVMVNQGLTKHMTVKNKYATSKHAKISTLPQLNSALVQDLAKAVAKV
Compound,IC50 (cyclin D1/cdk 4 enzyme; [1]) [µM],melting point,"IC50 (MCF-7; MCF-7 cells, SRB, three days) [µM]","IC50 (HCT-116; HCT116 cells, SRB, three days) [µM]",IC50 (cyclin E/CDK2 enzyme; [2]) [µM],"IC50 (BT474; BT474 cells, SRB, 6 days) [µM]",IC50 (cyclin B/CDK1 enzyme; [3]) [µM],"IC50 (LoVo; LoVo cells, SRB, three days) [µM]",IC50 (cyclin D1/cdk 4 enzyme; [4]) [µM],"IC50 (MCF-7; MCF-7 cells, 3 days, SRB) [µM]","IC50 (HCT-116; HCT116 cells, 3 days, SRB) [µM]",IC50 (cyclin E/CDK2 enzyme; [5]) [µM],"IC50 (BT474; BT474 cells, 6 days, SRB) [µM]",IC50 (cyclin B/CDK1 enzyme; [6]) [µM],"IC50 (LoVo; LoVo cells, 3 days, SRB) [µM]",IC50 (MCF-7) [µM],IC50 (HCT-116) [µM],IC50 (BT474) [µM],IC50 (LoVo) [µM]
"CC1CCCN1Cc1ccc(N/C=C2\C(=O)NC(=O)c3ccc(-c4ccoc4)cc32)cc1 (stereo not shown) [Example 291, (4Z)-6-(3-Furyl)-4-[({4-[(2-methylpyrrolidin-1-yl)methyl]phenyl}amino)methylene]-isoquinoline-1,3(2H,4H)-dione]",0.19,165 to 166 °C,0.59,2.3,> 50,1,> 50,1.9,,,,,,,,,,,
"Nc1ccc(CN/C=C2\C(=O)NC(=O)c3ccc(-c4ccc(F)cc4)cc32)cc1O [Example 134, (4Z)-4-{[(4-Amino-3-hydroxybenzyl)amino]methylene}-6-(4 fluorophenyl)isoquinoline-1,3(2H,4H)-dione]",0.04,227 to 228 °C,12,13,13.2,11,> 50,11,,,,,,,,,,,
"CCN1CCN(c2ccc(N/C=C3\C(=O)NC(=O)c4ccc(-c5ccoc5)cc43)nc2)CC1 [Example 481, (4Z)-4-({[5-(4-Ethylpiperazin-1-yl)pyridin-2-yl]amino}methylene)-6-(3-furyl)isoquinoline-1,3(2H,4H)-dione]",,256 to 257 °C,,,,,,,0.19,1.1,0.88,> 50,0.6,> 50,0.96,,,,
"COc1ccc2c(c1)/C(=C/NCc1ccc(OC)c(O)c1)C(=O)NC2=O [Example 90, 4-[(3-Hydroxy-4-methoxy-benzylamino)-methylene]-6-methoxy-4H-isoquinoline-1,3-dione]",0.031,240 to 242 °C (dec.),12,9.8,2.9,6.9,22.3,24,,,,,,,,,,,
"O=C1NC(=O)c2ccc(Br)cc2/C1=C/NCc1ccc(NC(=O)C(F)(F)F)c(O)c1 [Example 218, N-[4-({[(Z)-(6-Bromo-1,3-dioxo-2,3-dihydroisoquinolin-4(1H)-′ylidene)methyl]amino}methyl)-2-hydroxyphenyl]-2,2,2-trifluoroacetamide]",0.15,278 to 279 °C,19,3.3,> 50,2.6,> 50,4.5,,,,,,,,,,,
"O=C1NC(=O)c2ccc(Br)cc2/C1=C/Nc1ccc(CCN2CCCC2)cc1 [Example 176, 6-Bromo-4-{[4-(2-pyrrolidin-1-yl-ethyl)-phenylamino]-methylene}-4H-isoquinolin-1,3-dione]",1.3,212 to 214 °C (dec.),3.8,3.4,> 50,7.2,> 50,4.5,,,,,,,,,,,
"CC(C)Oc1ccc(CN/C=C2\C(=O)NC(=O)c3ccc(Br)cc32)cc1O [Example 137, (4Z)-6-Bromo-4-{[(3-hydroxy-4-isopropoxybenzyl)amino]methylene}isoquinoline-1,3(2H,4H)-dione]",0.69,212 to 213 °C,17,4.4,33.9,3.3,> 50,5.8,,,,,,,,,,,
O=C1NC(=O)c2ccc(I)cc2/C1=C/Nc1ccc(CN2CCCC2)cc1 [Example 126],0.66,186 to 187 °C,2.3,3.4,10,0.9,> 50,5.1,,,,,,,,,,,
"CC1CCCN1Cc1ccc(N/C=C2\C(=O)NC(=O)c3ccc(Br)cc32)cc1 (stereo not shown) [Example 287, (4Z)-6-Bromo-4-[({4-[(2-methylpyrrolidin-1-yl)methyl]phenyl}amino)methylene]-isoquinoline-1,3(2H,4H)-dione]",1.6,183 to 184 °C,1.7,4.2,> 50,1.3,> 50,5.4,,,,,,,,,,,
"CN1CCC(c2ccc(N/C=C3\C(=O)NC(=O)c4ccc(I)cc43)cc2)CC1 [Example 239, (4Z)-6-Iodo-4-({[4-(1-methylpiperidin-4-yl)phenyl]amino}methylene)isoquinoline-1,3(2H,4H)-dione]",0.31,215 to 216 °C,4,2.5,4.2,7.9,> 50,7.7,,,,,,,,,,,
"O=C1NC(=O)c2ccc(Br)cc2/C1=C/Nc1ccc(CN2CCC(CCO)CC2)cc1 [Example 489, (4Z)-6-Bromo-4-{[(4-{[4-(2-hydroxyethyl)piperidin-1-yl]methyl}phenyl)amino]methylene}isoquinoline-1,3(2H,4H)-dione]",,200 to 201 °C,,,,,,,1.3,3.43,4.04,> 50,6.25,> 50,4.59,,,,
"Nc1cccc(CN/C=C2\C(=O)NC(=O)c3ccc(Br)cc32)c1 [Example 52, (4Z)-4-{[(3-Aminobenzyl)amino]methylene}-6-bromoisoquinoline-1,3(2H,4H)-dione]",24.3,214 to 215 °C,> 50,40,4.5,41,> 50,> 50,,,,,,,,,,,
"CN1CCN(c2ccc(N/C=C3\C(=O)N(CO)C(=O)c4ccc(Br)cc43)cc2)CC1 [Example 220, (4Z)-6-Bromo-2-(hydroxymethyl)-4-({[4-(4-methylpiperazin-1-yl)phenyl]amino}methylene)isoquinoline-1,3(2H,4H)-dione]",3.3,141 to 142 °C,2.4,3.2,> 50,3.3,> 50,3.8,,,,,,,,,,,
"COc1ccc(C#Cc2ccc3c(c2)/C(=C/Nc2ccc(N4CCN(C)CC4)cc2)C(=O)NC3=O)cc1 [Example 172, (4Z)-6-[(4-Methoxyphenyl)ethynyl]-4-({[4-(4-methylpiperazin-1-yl)phenyl]amino}-methylene)isoquinoline-1,3(2H,4H)-dione]",23.6,155 to 156 °C,> 50,8.7,> 50,17,23.6,> 50,,,,,,,,,,,
O=Cc1sccc1-c1ccc2c(c1)/C(=C/Nc1ccc(CN3CCCCC3)cc1)C(=O)NC2=O [Example 97],1,224 to 225 °C,2.8,1.5,6.7,3.1,> 50,1.9,,,,,,,,,,,
"CN1CCN(c2ccc(N/C=C3\C(=O)NC(=O)c4ccc(F)cc43)cc2)CC1 [Example 70, (4Z)-6-Fluoro-4-({[4-(4-methylPiperzin-1-yl)phenyl]amino}methylene)isoquinoline-1,3(2H,4H)-dione]",9.4,242 to 243 °C,4.06,2.55,> 50,3.23,16.9,5.18,,,,,,,,,,,
"CN1CCN(c2ccc(N/C=C3\C(=O)NC(=O)c4ccc(-c5ccc(-c6cccs6)s5)cc43)cc2)CC1 [Example 182, (4Z)-6-(2,2′-Bithien-5-yl)-4-({[4-(4-methylpiperazin-1-yl)phenyl]amino}methylene)-isoquinoline-1,3(2H,4H)-dione]",2.3,204 to 205 °C,,,> 50,,2.3,,,,,,,,,> 50,> 50,17,> 50
